This note sets out measurements from US7169786B2, “Isoxazoline derivatives as anti-depressants” (priority 2001, dated 2007).

One experiment concerns the target T1, hα2C receptor (Homo sapiens, UniProt P18825).
T1 construct: expressed in transfected cells
T1 sequence (P18825 1-462): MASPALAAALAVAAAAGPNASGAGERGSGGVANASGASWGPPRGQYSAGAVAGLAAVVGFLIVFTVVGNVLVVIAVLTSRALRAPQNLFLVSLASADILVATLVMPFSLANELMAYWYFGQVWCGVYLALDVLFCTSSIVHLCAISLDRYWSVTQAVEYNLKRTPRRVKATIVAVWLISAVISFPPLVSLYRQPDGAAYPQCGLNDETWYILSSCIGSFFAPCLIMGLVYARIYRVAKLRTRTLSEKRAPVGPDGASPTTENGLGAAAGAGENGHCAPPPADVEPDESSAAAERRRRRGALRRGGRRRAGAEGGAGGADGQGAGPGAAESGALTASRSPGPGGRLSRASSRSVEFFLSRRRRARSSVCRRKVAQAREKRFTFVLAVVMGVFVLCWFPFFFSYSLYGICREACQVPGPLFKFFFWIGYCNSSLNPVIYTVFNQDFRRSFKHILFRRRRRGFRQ
Description: Radioligand binding experiment for hα2C receptor ([3H]-raulwolscine). The settings on record: membranes of CHO cells expressing human α2C receptor, [3H]raulwolscine 1 nM; for IC50: read-out: hα2C pIC50 (converted). Summed up: (§1)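 Competition binding with [3H]-rauwolscine on membranes from CHO cells stably expressing human α2A, α2B or α2C receptors (sodium butyrate-induced), in 25 mM glycylglycine pH 8.0; filtration and scintillation counting.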

The target in another experiment is T2, hα2A receptor (Homo sapiens, UniProt P08913).
T2 construct: expressed in transfected cells
T2 sequence (P08913 1-465): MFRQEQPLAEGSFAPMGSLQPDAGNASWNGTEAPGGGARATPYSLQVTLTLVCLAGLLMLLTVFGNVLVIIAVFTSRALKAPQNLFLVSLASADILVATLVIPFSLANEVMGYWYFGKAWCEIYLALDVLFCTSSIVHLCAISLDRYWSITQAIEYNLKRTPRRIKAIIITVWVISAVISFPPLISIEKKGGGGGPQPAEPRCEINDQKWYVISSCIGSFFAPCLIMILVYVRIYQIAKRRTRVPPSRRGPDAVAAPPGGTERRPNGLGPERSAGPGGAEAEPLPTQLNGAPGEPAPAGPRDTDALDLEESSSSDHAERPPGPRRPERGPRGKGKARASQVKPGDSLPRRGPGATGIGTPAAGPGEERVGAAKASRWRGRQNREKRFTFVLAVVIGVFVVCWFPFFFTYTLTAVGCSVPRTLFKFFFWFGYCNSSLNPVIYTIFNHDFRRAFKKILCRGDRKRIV
Description: Radioligand binding experiment for hα2A receptor ([3H]-raulwolscine). The following applies: membranes of CHO cells expressing human α2A receptor, [3H]raulwolscine 1 nM; for IC50: read-out: hα2A pIC50 (converted). Here is the method:
The interaction of the compounds of Formula (I) with hα2-receptors and h5-HT-transporters was assessed in in vitro radioligand binding experiments. In general, a low concentration of a radioligand with a high binding affinity for a particular receptor or transporter is incubated with a sample of a tissue preparation enriched in a particular receptor or transporter or with a preparation of cells expressing cloned human receptors in a buffered medium. During the incubation, the radioligand binds to the receptor or transporter. When equilibrium of binding is reached, the receptor bound radioactivity is separated from the non-bound radioactivity, and the receptor- or transporter-bound activity is counted. The interaction of the test compounds with the receptor is assessed in competition binding experiments. Various concentrations of the test compound are added to the incubation mixture containing the receptor- or transporter preparation and the radioligand. The test compound in proportion to its binding affinity and its concentration inhibits binding of the radioligand. The radioligand used for hα2A, hα2B and hα2C receptor binding was [^3H]-raulwolscine and for the h5-HT transporter was [^3H]paroxetine.
CHO cells, stabile transfected with human adrenergic-α2A-, -α2B or α2C receptor cDNA, were cultured in Dulbecco's Modified Eagle's Medium (DMEM)/Nutrient mixture Ham's F12 (ratio 1:1)(Gibco, Gent-Belgium) supplemented with 10% heat inactivated fetal calf serum (Life Technologies, Merelbeke-Belgium) and antibiotics (100 IU/ml penicillin G, 100 μg/ml streptomycin sulphate, 110 μg/ml pyruvic acid and 100 μg/ml L-glutamine). One day before collection, cells were induced with 5 mM sodiumbutyrate. Upon 80–90% of confluence, cells were scraped in phosphate buffered saline without Ca^2+ and Mg^2+ and collected by centrifugation at 1500×g for 10 min. The cells were homogenised in Tris-HCl 50 mM using an Ultraturrax homogenizer and centrifuged for 10 min at 23,500×g. The pellet was washed once by resuspension and rehomogenization and the final pellet was resuspended in Tris-HCl, divided in 1 ml aliquots and stored at −70° C.
Membranes were thawed and re-homogenized in incubation buffer (glycylglycine 25 mM, pH 8.0). […] Filters were rinsed extensively with ice-cold rinsing buffer (Tris-HCl 50 mM pH 7.4). Filter-bound radioactivity was determined by scintillation counting in a Topcount (Packard, Meriden, Conn.) and results were expressed as counts per minute (cpm). Non-specific binding was determined in the presence of 1 μM oxymetazoline for hα2A- and hα2B receptors and 1 μM spiroxatrine for hα2C receptors.
Data from assays in the presence of compound were calculated as a percentage of total binding measured in the absence of test compound. Inhibition curves, plotting percent of total binding versus the log value of the concentration of the test compound, were automatically generated, and sigmoidal inhibition curves were fitted using non-linear regression. The pIC50 values of test compounds were derived from individual curves.

For the next experiment, the target named is T3, h5-HT transporter (Homo sapiens, UniProt P31645).
T3 construct: Human platelet membranes (Oceanix Biosciences Corporation, Hanover, Md., USA) were thawed; tissue Oceanix Biosciences Corporation, Hanover, Md., USA; host or cells: human platelet membranes
Description: Radioligand binding experiment for 5-HT transporter ([3H]paroxetine, human platelet membranes). The following applies: human platelet membranes, [3H]paroxetine 0.5 nM; for IC50: read-out: 5HTT pIC50 (converted). Summed up: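 Competition binding of [^3H]paroxetine to human platelet membranes in Tris-HCl 50 mM, 120 mM NaCl, 5 mM KCl; filter-bound radioactivity counted.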

A further experiment addresses T4, hα2B receptor (Homo sapiens, UniProt P18089).
T4 construct: expressed in transfected cells
T4 sequence (P18089 1-450): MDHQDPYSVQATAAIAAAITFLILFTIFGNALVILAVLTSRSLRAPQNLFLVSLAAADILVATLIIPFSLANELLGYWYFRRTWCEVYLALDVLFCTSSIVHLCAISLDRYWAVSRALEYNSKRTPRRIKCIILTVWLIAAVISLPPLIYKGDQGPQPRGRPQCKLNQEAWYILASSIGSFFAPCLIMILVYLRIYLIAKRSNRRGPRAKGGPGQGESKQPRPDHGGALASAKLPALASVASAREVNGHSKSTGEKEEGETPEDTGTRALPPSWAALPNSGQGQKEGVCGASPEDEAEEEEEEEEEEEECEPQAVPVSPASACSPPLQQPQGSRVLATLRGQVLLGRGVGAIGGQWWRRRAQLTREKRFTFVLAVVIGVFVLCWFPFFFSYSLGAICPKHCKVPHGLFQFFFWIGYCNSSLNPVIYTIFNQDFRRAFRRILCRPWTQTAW
Description: Radioligand binding experiment for hα2B receptor ([3H]-raulwolscine). The following applies: membranes of CHO cells expressing human α2B receptor, [3H]raulwolscine 1 nM; for IC50: read-out: hα2B pIC50 (converted). In short, it runs like this: as §1

T3 sequence (P31645 whole entry): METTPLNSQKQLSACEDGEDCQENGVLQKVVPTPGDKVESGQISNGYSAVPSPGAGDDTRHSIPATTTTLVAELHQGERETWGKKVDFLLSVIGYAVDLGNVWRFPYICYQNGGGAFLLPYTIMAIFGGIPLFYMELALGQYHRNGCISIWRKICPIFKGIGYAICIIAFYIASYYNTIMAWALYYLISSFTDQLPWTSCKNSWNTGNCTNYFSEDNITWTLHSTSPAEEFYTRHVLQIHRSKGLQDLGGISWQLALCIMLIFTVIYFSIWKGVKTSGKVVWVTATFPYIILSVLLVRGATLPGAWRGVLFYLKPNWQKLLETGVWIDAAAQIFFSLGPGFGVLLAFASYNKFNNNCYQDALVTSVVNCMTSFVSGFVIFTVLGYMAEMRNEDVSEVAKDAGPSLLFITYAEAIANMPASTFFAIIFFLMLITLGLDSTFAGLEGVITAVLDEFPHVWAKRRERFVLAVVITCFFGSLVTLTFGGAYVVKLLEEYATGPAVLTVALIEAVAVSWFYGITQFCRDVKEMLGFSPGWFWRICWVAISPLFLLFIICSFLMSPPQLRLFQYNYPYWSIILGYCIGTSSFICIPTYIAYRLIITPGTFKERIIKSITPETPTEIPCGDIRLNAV

Take `COc1cc2c(cc1OC)C1=NOC(CN3CCN(Cc4cccc(Cl)c4)CC3)C1CO2` (stereo not shown) [Compound 14]: the IC50 on hα2C receptor was 263 nM; at hα2A receptor, 427 nM; on h5-HT transporter, 363 nM; at hα2B receptor, 646 nM.

Take `COc1cc2c(cc1OC)C1=NOC(CN3CCN(CC(Br)=Cc4ccccc4)CC3)C1CO2` (stereo not shown) [Compound 143]: the IC50 at hα2C receptor is 23.4 nM; at hα2A receptor it was 77.6 nM; at h5-HT transporter, 24 nM; on hα2B receptor it was 25.1 nM.

In the case of `COc1cc2c(cc1OC)C1=NOC(CN3CCN(Cc4ccc5cc(C)ccc5c4)CC3)C1CO2` (stereo not shown) [Compound 72], the IC50 at hα2C receptor was 66.1 nM; at hα2A receptor, 46.8 nM; on h5-HT transporter it was 6.92 nM; at hα2B receptor, 178 nM.

With `CC(=O)Oc1ccc2c(c1)OCC1C2=NOC1CN1CCN(CC=Cc2ccccc2)CC1` (stereo not shown) [Compound 233], the “hα2C pIC50” value at hα2C receptor amounted to 7.94. The “hα2A pIC50” value at hα2A receptor is on record as 8.33. Besides, the “5HTT pIC50” value at h5-HT transporter was found to be 7.36. In addition, the “hα2B pIC50” value on hα2B receptor turned out to be 8.20.

For `COc1cc2c(cc1OC)C1=NOC(CN3CCN(C/C=C/C=C/c4ccccc4)CC3)C1CO2` (single isomer, unassigned) [Compound 127], the IC50 is 25.7 nM at hα2C receptor, 141 nM at hα2A receptor, 63.1 nM on h5-HT transporter and 123 nM on hα2B receptor.

In the case of `CC(=O)Oc1ccc2c(c1)OCC1C2=NOC1CN1CCN(Cc2ccc3ccccc3c2)CC1` (stereo not shown) [Compound 273], the IC50 at hα2C receptor is 30.9 nM; on hα2A receptor it was 7.76 nM; on h5-HT transporter it was 13.2 nM; at hα2B receptor, 20.9 nM.

With `COc1ccc2c(c1)OCC1C2=NOC1CN1CCN(Cc2ccc3ccccc3c2)CC1` (stereo not shown) [Compound 265], the IC50 at hα2C receptor was 27.5 nM; at hα2A receptor it was 3.47 nM; at h5-HT transporter it was 14.8 nM; on hα2B receptor, 20.9 nM.

Consider `COc1cc2c(cc1OC)C1=NOC(CN3CCN(CCOc4ccc(F)cc4)CC3)C1CO2` (stereo not shown) [Compound 48], for which the IC50 at hα2C receptor was 4.37 nM; at hα2A receptor, 13.2 nM; on h5-HT transporter, 126 nM; on hα2B receptor it was 5.75 nM.

With `COc1cc2c(cc1OC)C1=NOC(CN3CCN(CCCc4ccccc4)CC3)C1CO2` (stereo not shown) [Compound 32], the IC50 at hα2C receptor is 11.5 nM; on hα2A receptor, 12.6 nM; at h5-HT transporter it was 17 nM; on hα2B receptor, 14.5 nM.

For the compound `CN1CC2C(=NOC2CN2CCN(Cc3ccc4ccccc4c3)CC2)c2ccccc21` (stereo not shown) [Compound 266], the “hα2C pIC50” value at hα2C receptor was 7.45. Moreover, the “hα2A pIC50” value on hα2A receptor is listed as 7.84. The “5HTT pIC50” value on h5-HT transporter came out at 8.88. For the same compound, the “hα2B pIC50” value on hα2B receptor was determined as 7.80.

As for `C(=Cc1ccccc1)CN1CCN(CC2ON=C3c4ccccc4CCC32)CC1` (stereo not shown) [Comp 218], the IC50 on hα2C receptor is 1260 nM; at hα2A receptor, 182 nM; on h5-HT transporter it was 457 nM; at hα2B receptor, 132 nM.

In the case of `COc1cc2c(cc1OC)C1=NOC(CN3CCN(Cc4cc5ccccc5o4)CC3)C1CO2` (stereo not shown) [Compound 54], the IC50 is 36.3 nM on hα2C receptor, 19.1 nM on hα2A receptor, 41.7 nM on h5-HT transporter and 38 nM on hα2B receptor.

With `COc1cc2c(cc1OC)C1=NOC(CN3CCN(CC=Cc4cccc(C)c4)CC3)C1CO2` (stereo not shown) [Compound 110], the IC50 on hα2C receptor is 34.7 nM; on hα2A receptor, 69.2 nM; at h5-HT transporter, 30.2 nM; at hα2B receptor, 112 nM.

Regarding `COc1cc2c(cc1OC)C1=NOC(CN3CCN(CC=Cc4ccc5ccccc5c4)CC3)C1CO2` (stereo not shown) [Compound 181], the IC50 at hα2C receptor is 324 nM; on hα2A receptor it was 282 nM; on h5-HT transporter, 23.4 nM; at hα2B receptor, 776 nM.

Take `COc1cc2c(cc1OC)C1=NOC(CN(C=O)C3CCN(Cc4ccc5ccccc5c4)CC3)C1CO2` (racemic) [Compound 282]: on hα2C receptor, the “hα2C pIC50” value came to 7.64. Further, the “hα2A pIC50” value at hα2A receptor is given as 7.66. For the same compound, at h5-HT transporter, the “5HTT pIC50” value turned out to be 8.06. For the same compound, the “hα2B pIC50” value on hα2B receptor was 7.26.

As for `COc1cc2c(cc1OC)C1=NOC(CN3CCN(C(C)/C=C/c4ccccc4)CC3)C1CO2` (single isomer, unassigned) [Compound 316], the IC50 at hα2C receptor is 120 nM; on hα2A receptor, 10.5 nM; at h5-HT transporter, 407 nM; on hα2B receptor, 174 nM.

Consider `COc1cc2c(cc1OC)C1=NOC(CN3CCN(CC4=Cc5ccccc5OC4)CC3)C1CO2` (stereo not shown) [Compound 65], for which the IC50 on hα2C receptor is 5.13 nM; on hα2A receptor, 13.2 nM; at h5-HT transporter, 5.13 nM; at hα2B receptor, 18.2 nM.

As for `COc1cc2c(cc1OC(C)=O)C1=NOC(CN3CCN(C/C(C)=C/c4ccccc4)CC3)C1CO2` (single isomer, unassigned) [Compound 333], the IC50 is 4.68 nM on hα2C receptor, 4.79 nM at hα2A receptor, 30.2 nM on h5-HT transporter and 3.8 nM on hα2B receptor.

`COc1cc2c(cc1OC(C)=O)C1=NOC(CN3CCN(CC(C)=Cc4ccccc4)CC3)C1CO2` (stereo not shown) [Compound 257]: the “hα2C pIC50” value at hα2C receptor is on record as 8.65. The “hα2A pIC50” value at hα2A receptor was determined as 7.52. The “5HTT pIC50” value at h5-HT transporter is 7.46. The “hα2B pIC50” value on hα2B receptor came out at 8.37.
